Experimental data as given in US11708348B2, “Protease inhibitors for treatment of coronavirus infections” (The Scripps Research Institute, priority 2021, dated 2023).
Like-named read-outs stand apart in the source and are kept apart here.

Tested on: SARS-CoV-2 strain USA-WA1/2020
Test: microbe, parasite or virus in culture
Type: cell-based
Settings: Severe acute respiratory syndrome coronavirus 2, HeLa-ACE2, 24 h, read-out: EC50, uM (Hela)
[1] = HeLa-ACE2 cells, SARS-CoV-2 infection, 24 h
[2] = HeLa-ACE2 cells, SARS-CoV-2 infection, 24 h, class symbols
[3] = HeLa-ACE2 cells, SARS-CoV-2 infection, 24 h, cells given as a bound

SMILES | EC50 [1] [µM] | EC50 [2] [µM] | further results
O=C(Nc1ccccc1F)C(=O)N1C[C@@H]2CC[C@@H]2[C@H]1C(=O)N[C@@H](C[C@@H]1CCNC1=O)C(=O)COC(F)(F)F [Compound 563, (1S,2S, 5R)-3-(2-((2-fluorophenyl)amino)-2-oxoacetyl)-N-((S)-3-oxo-1-((S)-2-oxopyrrolidin-3-yl)-4-(trifluoromethoxy)butan-2-yl)-3-azabicyclo-[3.2.0]heptane-2-carboxamide] | 0.05 to 0.2 | – | –
C=CC[C@@H](O)C(=O)N1CC2(CC2)C[C@H]1C(=O)N[C@@H](C[C@@H]1CCNC1=O)C(=O)COC(F)(F)F [Compound 662, (S)-5-((R)-2-hydroxypent-4-enoyl)-N-((S)-3-oxo-1-((S)-2-oxopyrrolidin-3-yl)-4-(trifluoromethoxy)butan-2-yl)-5-azaspiro[2.4]heptane-6-carboxamide] | 0.05 to 0.2 | – | –
CC(C)C[C@@H](OC(=O)Nc1ccccc1)C(=O)N1CC2(CC2)C[C@H]1C(=O)N[C@@H](C[C@@H]1CCNC1=O)C(=O)COC(F)(F)F [Compound 331, (R)-4-methyl-1-oxo-1-((S)-6-(((S)-3-oxo-l-((S)-2-oxopyrrolidin-3-yl)-4-(trifluoromethoxy)butan-2-yl)carbamoyl)-5-azaspiro[2.4]heptan-5-yl)pentan-2-yl phenylcarbamate] | – | < 0.05 | –
O=C1NCC[C@H]1C[C@H](NC(=O)[C@@H]1CC2(CC2)CN1C(=O)[C@H](O)CC1CC1)C(=O)COC(F)(F)F [Compound 392, (S)-5-((R)-3-cyclopropyl-2-hydroxypropanoyl)-N-((S)-3-oxo-1-((S)-2-oxopyrrolidin-3-yl)-4-(trifluoromethoxy)butan-2-yl)-5-azaspiro[2.4]heptane-6-carboxamide] | – | 0.05 to 0.2 | –
COc1cccc2[nH]c(C(=O)N[C@@H](CC(C)C)C(=O)N[C@@H](C[C@@H]3CCNC3=O)C(=O)COC(C(F)(F)F)C(F)(F)F)cc12 [Compound 157] | – | – | EC50 [3]: > 1 µM
CC(C)C(F)(F)C(=O)N1CC2(CC2)C[C@H]1C(=O)N[C@@H](C[C@@H]1CCNC1=O)C(=O)COC(F)(F)F [Compound 714, (S)-5-(2,2-difluoro-3-methylbutanoyl)-N-((S)-3-oxo-1-((S)-2-oxopyrrolidin-3-yl)-4-(trifluoromethoxy)butan-2-yl)-5-azaspiro[2.4]heptane-6-carboxamide] | < 0.05 | – | –
CC(C)C[C@H](NC(=O)C1CCCNC1=O)C(=O)N[C@@H](C[C@@H]1CCNC1=O)C(=O)COC(F)(F)F (stereo partly drawn) [Compound 190, N-((S)-4-methyl-1-oxo-1-(((S)-3-oxo-1-((S)-2-oxopyrrolidin-3-yl)-4-(trifluoromethoxy)butan-2-yl)amino)pentan-2-yl)-2-oxopiperidine-3-carboxamide] | – | – | EC50 [3]: > 1 µM
CC(C)(C)NC(=O)C(=O)N1CC2(COC2)C[C@@H]1C(=O)N[C@@H](C[C@@H]1CCNC1=O)C(=O)COC(F)(F)F [Compound 514, (R)-6-(2-(tert-butylamino)-2-oxoacetyl)-N-((S)-3-oxo-1-((S)-2-oxopyrrolidin-3-yl)-4-(trifluoromethoxy)butan-2-yl)-2-oxa-6-azaspiro[3.4]octane-7-carboxamide] | 0.5 to 1 | – | –
CC1(C)CCC(O)(C(=O)N2CC3(CC3)C[C@H]2C(=O)N[C@@H](C[C@@H]2CCNC2=O)C(=O)COC(F)(F)F)CC1 [Compound 633, (S)-5-(l-hydroxy-4,4-dimethylcyclohexane-1-carbonyl)-N-((S)-3-oxo-1-((S)-2-oxopyrrolidin-3-yl)-4-(trifluoromethoxy)butan-2-yl)-5-azaspiro[2.4]heptane-6-carboxamide] | < 0.05 | – | –
O=C(N[C@@H](Cc1ccc(C(F)(F)F)cc1)C(=O)N[C@@H](C[C@@H]1CCNC1=O)C(=O)COc1c(F)c(F)cc(F)c1F)c1cc2cc(F)ccc2[nH]1 [Compound 17, 5-fluoro-N-((S)-1-oxo-1-(((S)-3-oxo-1-((S)-2-oxopyrrolidin-3-yl)-4-(2,3,5,6-tetrafluorophenoxy)butan-2-yl)amino)-3-(4-(tri-fluoromethyl)phenyl)-propan-2-yl)-1H-indole-2-carboxamide] | – | 0.2 to 0.5 | –
CC1(C)[C@@H]2[C@@H](C(=O)N[C@@H](C[C@@H]3CCNC3=O)C(=O)COC(F)(F)F)N(C(=O)[C@H](O)c3ccccc3F)C[C@@H]21 [Compound 407, (1R,2S,5S)-3-((R)-2-(2-fluorophenyl)-2-hydroxyacetyl)-6,6-dimethyl-N-((S)-3-oxo-1-((S)-2-oxopyrrolidin-3-yl)-4-(trifluoromethoxy)butan-2-yl)-3-azabicyclo[3.1.0]hexane-2-carboxamide] | < 0.05 | – | –
CC(C)C[C@H](NC(=O)c1cc(-c2ccccc2F)on1)C(=O)N[C@@H](C[C@@H]1CCNC1=O)C(=O)COC(F)(F)F [Compound 171, 5-(2-fluorophenyl)-N-((S)-4-methyl-1-oxo-1-(((S)-3-oxo-1-((S)-2-oxopyrrolidin-3-yl)-4-(trifluoromethoxy)butan-2-yl)amino)pentan-2-yl)isoxazole-3-carboxamide] | – | < 0.05 | –
COC(OC)C(=O)N1CC2(CC2)C[C@H]1C(=O)N[C@@H](C[C@@H]1CCNC1=O)C(=O)COC(F)(F)F [Compound 340, (S)-5-(2,2-dimethoxyacetyl)-N—((S)-3-oxo-1-((S)-2-oxopyrrolidin-3-yl)-4-(trifluoromethoxy)butan-2-yl)-5-azaspiro[2.4]heptane-6-carboxamide] | – | 0.2 to 0.5 | –
CC(C)C[C@H](NC(=O)C1OCCC1(F)F)C(=O)N[C@@H](C[C@@H]1CCNC1=O)C(=O)COC(F)(F)F (stereo partly drawn) [Compound 324, 3,3-difluoro-N-((S)-4-methyl-1-oxo-1-(((S)-3-oxo-1-((S)-2-oxopyrrolidin-3-yl)-4-(trifluoromethoxy)butan-2-yl)amino)pentan-2-yl)tetrahydrofuran-2-carboxamide] | – | 0.05 to 0.2 | –
CC(=O)N1CCN(C(=O)C(=O)N[C@@H](CC(C)C)C(=O)N[C@@H](C[C@@H]2CCNC2=O)C(=O)COc2c(F)c(F)cc(F)c2F)CC1 [Compound 104, (S)-2-(2-(4-acetylpiperazin-1-yl)-2-oxoacetamido)-4-methyl-N-((S)-3-oxo-1-((S)-2-oxopyrrolidin-3-yl)-4-(2,3,5,6-tetrafluorophenoxy)butan-2-yl)pentanamide] | – | – | EC50 [3]: > 1 µM
CC1(C)[C@@H]2[C@@H](C(=O)N[C@@H](C[C@@H]3CCNC3=O)C(=O)COC(F)(F)F)N(C(=O)[C@@H]3COCCO3)C[C@@H]21 [Compound 307, (1R,2S,5S)-3-((S)-1,4-dioxane-2-carbonyl)-6,6-dimethyl-N-((S)-3-oxo-1-((S)-2-oxopyrrolidin-3-yl)-4-(trifluoromethoxy)butan-2-yl)-3-azabicyclo[3.1.0]hexane-2-carboxamide] | – | 0.2 to 0.5 | –
O=C(NC1(C(F)(F)F)CC1)C(=O)N1C[C@@H]2CCC[C@@H]2[C@H]1C(=O)N[C@@H](C[C@@H]1CCNC1=O)C(=O)COC(F)(F)F [Compound 656, (1S,3aR,6aS)-N-((S)-3-oxo-1-((S)-2-oxopyrrolidin-3-yl)-4-(trifluoromethoxy)butan-2-yl)-2-(2-oxo-2-((1-(trifluoromethyl)cyclopropyl)amino)-acetyl)octahydrocyclopenta[c]pyrrole-1-carboxamide] | 0.05 to 0.2 | – | –
CC(C)(C)[C@H](NC(=O)C(F)(F)F)C(=O)N1C[C@@H]2CCC[C@@H]2[C@H]1C(=O)N[C@@H](C[C@@H]1CCNC1=O)C(=O)COC(F)(F)F [Compound 266, (1S,3aR,6aS)-2-((S)-3,3-dimethyl-2-(2,2,2-trifluoroacetamido)-butanoyl)-N-((S)-3-oxo-1-((S)-2-oxopyrrolidin-3-yl)-4-(trifluoromethoxy)butan-2-yl)octahydrocyclo-penta[c]pyrrole-1-carboxamide] | – | – | EC50: < 0.05 µM
COc1cccc(NC(=O)C(=O)N[C@@H](Cc2cccc(F)c2)C(=O)N[C@@H](C[C@@H]2CCNC2=O)C(=O)COC(F)(F)F)c1 [Compound 242, N1-((S)-3-(3-fluorophenyl)-1-oxo-1-(((S)-3-oxo-1-((S)-2-oxopyrrolidin-3-yl)-4-(trifluoromethoxy)butan-2-yl)amino)propan-2-yl)-N2-(3-methoxy-phenyl)oxalamide] | – | < 0.05 | –
O=C1NCC[C@H]1C[C@H](NC(=O)[C@@H]1[C@H]2CCC[C@H]2CN1C(=O)[C@H](O)c1ccccc1)C(=O)COC(F)(F)F [Compound 414, (1S,3aR,6aS)-2-((R)-2-hydroxy-2-phenylacetyl)-N-((S)-3-oxo-1-((S)-2-oxopyrrolidin-3-yl)-4-(trifluoromethoxy)butan-2-yl)octahydrocyclo-penta[c]pyrrole-1-carboxamide] | < 0.05 | – | –
CC(C)C[C@H](NC(=O)C(=O)Nc1ccccn1)C(=O)N[C@@H](C[C@@H]1CCNC1=O)C(=O)COc1c(F)c(F)cc(F)c1F [Compound 45, N1-((S)-4-methyl-1-oxo-1-(((S)-3-oxo-1-((S)-2-oxopyrrolidin-3-yl)-4-(2,3,5,6-tetrafluorophenoxy)butan-2-yl)amino)pentan-2-yl)-N2-(pyridin-2-yl)oxalamide] | – | 0.05 to 0.2 | –
O=C1NCC[C@H]1C[C@H](NC(=O)[C@@H]1C[C@@H](c2ccccc2)CN1C(=O)[C@@H](O)c1ccccc1)C(=O)COC(F)(F)F [Compound 780, (2S,4S)-1-((S)-2-hydroxy-2-phenylacetyl)-N-((S)-3-oxo-1-((S)-2-oxopyrrolidin-3-yl)-4-(trifluoromethoxy)butan-2-yl)-4-phenylpyrrolidine-2-carboxamide] | < 0.05 | – | –
CC(C)C[C@H](NC(=O)C(=O)NC1CC1)C(=O)N[C@@H](C[C@@H]1CCNC1=O)C(=O)COc1c(F)c(F)cc(F)c1F [Compound 98, N1-cyclopropyl-N2-((S)-4-methyl-1-oxo-1-(((S)-3-oxo-1-((S)-2-oxopyrrolidin-3-yl)-4-(2,3,5,6-tetrafluorophenoxy)butan-2-yl)amino)pentan-2-yl)oxalamide] | – | 0.05 to 0.2 | –
